Measured values as given in US12509424B2, “Compound and composition as PDGF receptor kinase inhibitor” (NIPPON SHINYAKU CO., LTD., priority 2019, dated 2025).
Read-outs that look alike come from different tables or passages of the source.

What was measured:
[1] = target: PDGFR-β (Homo sapiens (Human), UniProt P09619); experiment: PDGFR-β tyrosine kinase inhibitory action (HTRF KinEASE-TK); format: biochemical; details: PDGFR-β enzyme 1 ng/μL, 30° C. for 30 minutes; read-out: PDGF-β IC50
Summary of the method: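 Recombinant PDGFR-β at 1 ng/μL final with TK substrate-3-biotin in a substrate solution containing 0.6 μM ATP; buffer 50 mM HEPES pH 7.0, 5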

[2] = tested on: pulmonary arterial smooth muscle cells; experiment: Suppression of proliferation of pulmonary arterial smooth muscle cells (PDGF-BB stimulation, BrdU); format: cell-based; details: PASMC, read-out: Human normal PASMC proliferation suppression (PDGF stimulation_IC50)
Summary of the method: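 Healthy human pulmonary arterial smooth muscle cells, serum-starved a day in 0.1% FBS medium, were treated with compound at final 3 to 10,000 nM plus human PDGF-BB (final 10 ng/mL) and BrdU. After 1 day of culture, BrdU uptake was measured with an anti-BrdU antibody.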

[3] = target: TEL-KIT fusion gene transfected cells (Ba/F3); experiment: Suppression of proliferation of TEL-KIT fusion gene transfected Ba/F3 cells; details: read-out: KIT/BaF3 proliferation inhibition (IC50); TEL-KIT expressing Ba/F3 cells, 72 hours, final concentration 0.1 to 10,000 nM;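 also: viable cells quantified via formazan from tetrazolium reduction, inhibition scaled with 0.1% DMSO control as 0% and medium-only blank as 100%, IC50 from two-parameter logistic fit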
Source text: Fabrication of TEL-PDGFRβ and TEL-KIT Fusion Gene Transfected Cells
Subsequently, the vectors for gene transfection were introduced using a transfection reagent (FuGENE6, Promega Corporation) into packaging cells derived from a human fetal kidney cell line, PLAT-E, in the logarithmic growth phase. Since the culture supernatant of PLAT-E after the gene transfection contained virus particles for gene transfection, it was collected and used as a medium for gene transfection. The medium for gene transfection was added to a plate coated with RetroNectin and incubated, and the virus particles were allowed to adhere to the plate. Thereafter, the mouse pro-B cell line Ba/F3 in the logarithmic growth phase was seeded onto the plate and infected with the virus to fabricate cells that proliferate in a PDGFRβ or KIT dependent manner.
The test substance was prepared with dimethyl sulfoxide (DMSO) to 10 mM and diluted with DMSO so as to reach a concentration of 0.0001 to 3 mM. Furthermore, it was diluted by 100 times with distilled water.
Measurement of Suppression Action Against Proliferation of TEL-PDGFRβ or TEL-KIT Expressing Cells
The day after TEL-PDGFRβ and TEL-KIT expressing cells were seeded onto 96 well plates, the prepared test substance solution was added thereto with a final concentration being 0.1 to 10,000 nM. After 72 hours, the viable cell count was measured using the amount of formazan generated from the reduction of a tetrazolium salt compound by the mitochondrial dehydrogenase of viable cells as an indicator.
Based on the amount of formazan in each condition, the suppression rate against cell proliferation was calculated when the amounts of formazan in the negative control (0.1% DMSO solution) and Blank (medium only) were defined as 0% and 100%, respectively. Subsequently, a nonlinear regression analysis with a two parameter logistic model for the log dose and suppression rate against cell proliferation was carried out using the SAS system (SAS Institute Inc.) to estimate the IC50 value.

[4] = target: TEL-PDGFRβ fusion gene transfected cells (Ba/F3); experiment: Suppression of proliferation of TEL-PDGFRβ fusion gene transfected Ba/F3 cells; format: cell-based, human; details: TEL-PDGFRβ expressing Ba/F3 cells, 72 hours, final concentration 0.1 to 10,000 nM; read-out: PDGFR β/BaF3 proliferation inhibition (IC50)
Source text: 2. Preparation of Test Substance
4. Analysis of Measurement Results

[5] = human PDGF-BB 10 ng/mL, BrdU uptake, final concentration 3 to 10,000 nM
[6] = 24 h, healthy human derived pulmonary arterial smooth muscle cells, human PDGF-BB 10 ng/mL stimulation, BrdU uptake after 1 day, test substance final concentration 3 to 10,000 nM

Chain of PDGFR-β (P09619 33-1106): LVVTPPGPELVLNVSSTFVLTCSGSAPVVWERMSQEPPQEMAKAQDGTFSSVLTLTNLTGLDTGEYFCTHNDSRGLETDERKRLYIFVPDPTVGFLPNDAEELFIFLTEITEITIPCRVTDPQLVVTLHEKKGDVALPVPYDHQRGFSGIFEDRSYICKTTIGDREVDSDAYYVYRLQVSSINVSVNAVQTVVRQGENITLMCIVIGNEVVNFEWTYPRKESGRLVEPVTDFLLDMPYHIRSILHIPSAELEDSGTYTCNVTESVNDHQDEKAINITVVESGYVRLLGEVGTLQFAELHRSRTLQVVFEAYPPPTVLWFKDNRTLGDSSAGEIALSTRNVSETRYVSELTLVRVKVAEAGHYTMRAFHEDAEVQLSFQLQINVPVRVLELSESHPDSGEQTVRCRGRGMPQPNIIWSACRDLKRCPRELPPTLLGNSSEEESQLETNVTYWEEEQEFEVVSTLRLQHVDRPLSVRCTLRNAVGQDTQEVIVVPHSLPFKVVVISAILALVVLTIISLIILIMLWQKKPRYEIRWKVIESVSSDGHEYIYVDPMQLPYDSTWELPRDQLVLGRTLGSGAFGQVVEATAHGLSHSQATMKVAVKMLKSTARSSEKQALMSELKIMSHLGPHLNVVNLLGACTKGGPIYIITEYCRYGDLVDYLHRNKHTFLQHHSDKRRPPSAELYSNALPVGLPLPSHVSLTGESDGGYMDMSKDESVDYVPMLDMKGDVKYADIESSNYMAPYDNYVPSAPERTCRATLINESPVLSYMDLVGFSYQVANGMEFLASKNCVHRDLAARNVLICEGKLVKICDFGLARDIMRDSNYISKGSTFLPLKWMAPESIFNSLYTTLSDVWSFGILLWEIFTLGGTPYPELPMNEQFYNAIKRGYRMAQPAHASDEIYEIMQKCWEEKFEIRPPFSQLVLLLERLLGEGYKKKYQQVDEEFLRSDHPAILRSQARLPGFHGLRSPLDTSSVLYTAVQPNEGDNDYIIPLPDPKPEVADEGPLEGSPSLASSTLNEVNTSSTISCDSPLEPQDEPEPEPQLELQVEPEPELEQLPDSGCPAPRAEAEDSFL
Chain of TEL-PDGFRβ fusion gene transfected cells (Ba/F3) (P09619 33-1106 limits assumed, change not shown): as the sequence (P09619 33-1106) above
Chain of TEL-KIT fusion gene transfected cells (Ba/F3) (P10721 26-976 limits assumed, change not shown): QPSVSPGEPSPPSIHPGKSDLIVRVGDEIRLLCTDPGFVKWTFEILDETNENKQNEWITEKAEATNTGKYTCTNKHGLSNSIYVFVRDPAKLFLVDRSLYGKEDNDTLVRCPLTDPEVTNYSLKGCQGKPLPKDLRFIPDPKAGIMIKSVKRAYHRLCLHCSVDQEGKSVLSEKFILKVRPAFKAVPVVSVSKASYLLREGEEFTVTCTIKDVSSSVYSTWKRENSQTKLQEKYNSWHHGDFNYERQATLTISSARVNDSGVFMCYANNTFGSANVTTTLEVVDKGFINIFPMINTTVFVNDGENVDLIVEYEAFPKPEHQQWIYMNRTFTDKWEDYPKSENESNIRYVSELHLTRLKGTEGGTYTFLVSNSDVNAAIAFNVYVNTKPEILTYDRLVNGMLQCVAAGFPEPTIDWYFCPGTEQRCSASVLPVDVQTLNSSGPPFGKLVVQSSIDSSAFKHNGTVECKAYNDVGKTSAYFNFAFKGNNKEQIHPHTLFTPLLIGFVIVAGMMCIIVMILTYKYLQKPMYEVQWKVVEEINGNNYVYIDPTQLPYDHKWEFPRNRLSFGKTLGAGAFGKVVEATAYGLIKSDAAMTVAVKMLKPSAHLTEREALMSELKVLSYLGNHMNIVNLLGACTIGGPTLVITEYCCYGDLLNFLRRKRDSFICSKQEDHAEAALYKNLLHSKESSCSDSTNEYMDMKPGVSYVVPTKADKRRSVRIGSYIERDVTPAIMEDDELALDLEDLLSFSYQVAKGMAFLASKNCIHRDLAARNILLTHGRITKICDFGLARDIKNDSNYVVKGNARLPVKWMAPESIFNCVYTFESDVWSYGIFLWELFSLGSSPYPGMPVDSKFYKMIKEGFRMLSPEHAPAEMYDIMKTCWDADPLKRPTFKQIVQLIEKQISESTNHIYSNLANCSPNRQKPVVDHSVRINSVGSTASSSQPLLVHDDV

Structure (SMILES) | IC50 [1] | IC50 [3] | IC50 [4] | IC50 [2, 5] | IC50 [2, 6]
Cc1ccc(C(=O)N[C@H]2CCCC[C@@H]2O)cc1NC(=O)c1cncc(N(C)C2CC2)c1 [Example 17, 5-[cyclopropyl(methyl)amino]-N-(5-{[(1S,2S)-2-hydroxycyclohexyl]carbamoyl}-2-methylphenyl)pyridine-3-carboxamide] | 42 nM | 800 nM | 10 nM | 130 nM | 
COc1ccc(-c2cncc(C(=O)Nc3cc(C(=O)N[C@H]4CCCC[C@@H]4O)ccc3C)c2)cc1 [Example 18, N-(5-{[(1S,2S)-2-hydroxycyclohexyl]carbamoyl}-2-methylphenyl)-5-(4-methoxyphenyl)pyridine-3-carboxamide] | 39 nM | 530 nM | 20 nM | 47 nM | 
CC(C)=Cc1cncc(C(=O)Nc2cc(C(=O)N[C@H]3CCCC[C@@H]3O)ccc2C)c1 [Example 23, N-(5-{[(1S,2S)-2-hydroxycyclohexyl]carbamoyl}-2-methylphenyl)-5-(2-methylprop-1-en-1-yl)pyridine-3-carboxamide] | 26 nM | 620 nM | 4.9 nM | 64 nM | 
Cc1ccc(C(=O)N[C@H]2CCCC[C@@H]2O)cc1NC(=O)c1cncc(OCC2CC2)c1 [Example 24, 5-(cyclopropylmethoxy)-N-(5-{[(1S,2S)-2-hydroxycyclohexyl]carbamoyl}-2-methylphenyl)pyridine-3-carboxamide] | 64 nM | 1200 nM | 11 nM | 110 nM | 
Cc1ccc(C(=O)N[C@H]2CCCC[C@@H]2O)cc1NC(=O)c1cnc(NC2CC(F)(F)C2)s1 [Example 25, 2-[(3,3-difluorocyclobutyl)amino]-N-(5-{[(1S,2S)-2-hydroxycyclohexyl]carbamoyl}-2-methylphenyl)-1,3-thiazole-5-carboxamide] | 39 nM | > 10000 nM | 50 nM | 230 nM | 
Cc1ccc(C(=O)N[C@H]2CCCC[C@@H]2O)cc1NC(=O)c1cnc(NCCC2CC2)s1 [Example 26, 2-[(2-cyclopropylethyl)amino]-N-(5-{[(1S,2S)-2-hydroxycyclohexyl]carbamoyl}-2-methylphenyl)-1,3-thiazole-5-carboxamide] | 4.6 nM | 460 nM | 9.3 nM | 25 nM | 
Cc1ccc(C(=O)N[C@H]2CCCC[C@@H]2O)cc1NC(=O)c1cnc(NC(C)C)s1 [Example 27, N-(5-{[(1S,2S)-2-hydroxycyclohexyl]carbamoyl}-2-methylphenyl)-2-[(propan-2-yl)amino]-1,3-thiazole-5-carboxamide] | 8.3 nM | 1000 nM | 8.7 nM | 70 nM | 
Cc1ccc(C(=O)N[C@H]2CCCC[C@@H]2O)cc1NC(=O)c1cncc(OC2CCC(F)(F)CC2)c1 [Example 28, 5-[(4,4-difluorocyclohexyl)oxy]-N-(5-{[(1S,2S)-2-hydroxycyclohexyl]carbamoyl}-2-methylphenyl)pyridine-3-carboxamide] | 170 nM | 5800 nM | 50 nM | 280 nM | 
Cc1ccc(C(=O)N[C@H]2CCCC[C@@H]2O)cc1NC(=O)c1cncc(-c2cccc(OC(F)(F)F)c2)c1 [Example 34, N-(5-{[(1S,2S)-2-hydroxycyclohexyl]carbamoyl}-2-methylphenyl)-5-[3-(trifluoromethoxy)phenyl]pyridine-3-carboxamide] | 19 nM | 540 nM | 8 nM |  | 130 nM

Second part, led by results:

IC50 [1] | IC50 [3] | IC50 [4] | Structure (SMILES) | IC50 [2, 5] | IC50 [2, 6]
13 nM | 1000 nM | 30 nM | Cc1ccc(C(=O)N[C@H]2CCCC[C@@H]2O)cc1NC(=O)c1cncc(-c2ccc(F)cc2)c1 [Example 19, 5-(4-fluorophenyl)-N-(5-{[(1S,2S)-2-hydroxycyclohexyl]carbamoyl}-2-methylphenyl)pyridine-3-carboxamide] | 81 nM | 
13 nM | 900 nM | 24 nM | Cc1ccc(C(=O)N[C@H]2CCCC[C@@H]2O)cc1NC(=O)c1cncc(-c2cccc(F)c2)c1 [Example 20, 5-(3-fluorophenyl)-N-(5-{[(1S,2S)-2-hydroxycyclohexyl]carbamoyl}-2-methylphenyl)pyridine-3-carboxamide] | 77 nM | 
73 nM | 2000 nM | 60 nM | Cc1ccc(C(=O)N[C@H]2CCCC[C@@H]2O)cc1NC(=O)c1cncc(-c2ccc(C(F)(F)F)cc2)c1 [Example 21, N-(5-{[(1S,2S)-2-hydroxycyclohexyl]carbamoyl}-2-methylphenyl)-5-[4-(trifluoromethyl)phenyl]pyridine-3-carboxamide] | 140 nM | 
14 nM | 900 nM | 59 nM | Cc1ccc(C(=O)N[C@H]2CCCC[C@@H]2O)cc1NC(=O)c1cncc(-c2cccc(C(F)(F)F)c2)c1 [Example 22, N-(5-{[(1S,2S)-2-hydroxycyclohexyl]carbamoyl}-2-methylphenyl)-5-[3-(trifluoromethyl)phenyl]pyridine-3-carboxamide] | 100 nM | 
35 nM | 290 nM | 7.5 nM | Cc1ccc(C(=O)N[C@H]2CCCC[C@@H]2O)cc1NC(=O)c1cncc(-c2ccccc2F)c1 [Example 29, 5-(2-fluorophenyl)-N-(5-{[(1S,2S)-2-hydroxycyclohexyl]carbamoyl}-2-methylphenyl)pyridine-3-carboxamide] |  | 130 nM
44 nM | 1300 nM | 22 nM | Cc1ccc(C(=O)N[C@H]2CCCC[C@@H]2O)cc1NC(=O)c1cncc(-c2cccc(F)c2F)c1 [Example 30, 5-(2,3-difluorophenyl)-N-(5-{[(1S,2S)-2-hydroxycyclohexyl]carbamoyl}-2-methylphenyl)pyridine-3-carboxamide] |  | 52 nM
73 nM | 1000 nM | 8 nM | Cc1ccc(C(=O)N[C@H]2CCCC[C@@H]2O)cc1NC(=O)c1cncc(-c2ccc(F)cc2F)c1 [Example 31, 5-(2,4-difluorophenyl)-N-(5-{[(1S,2S)-2-hydroxycyclohexyl]carbamoyl}-2-methylphenyl)pyridine-3-carboxamide] |  | 100 nM
47 nM | 920 nM | 17 nM | Cc1ccc(C(=O)N[C@H]2CCCC[C@@H]2O)cc1NC(=O)c1cncc(-c2cc(F)cc(F)c2)c1 [Example 32, 5-(3,5-difluorophenyl)-N-(5-{[(1S,2S)-2-hydroxycyclohexyl]carbamoyl}-2-methylphenyl)pyridine-3-carboxamide] |  | 190 nM
19 nM | 880 nM | 80 nM | COc1ccc(-c2cncc(C(=O)Nc3cc(C(=O)N[C@H]4CCCC[C@@H]4O)ccc3C)c2)c(F)c1 [Example 33, 5-(2-fluoro-4-methoxyphenyl)-N-(5-{[(1S,2S)-2-hydroxycyclohexyl]carbamoyl}-2-methylphenyl)pyridine-3-carboxamide] |  | 67 nM
160 nM | 2200 nM | 17 nM | Cc1ccc(C(=O)N[C@H]2CCCC[C@@H]2O)cc1NC(=O)c1cncc(-c2ccccc2OC(F)(F)F)c1 [Example 35, N-(5-{[(1S,2S)-2-hydroxycyclohexyl]carbamoyl}-2-methylphenyl)-5-[2-(trifluoromethoxy)phenyl]pyridine-3-carboxamide] |  | 320 nM
